{"source": "patent US5798375A", "about": "“Treatment of arteriosclerosis and xanthoma” (Sankyo Company, Limited, priority 1995, dated 1998)", "key": {"[1]": {"experiment": "Example 1: plasma total cholesterol in WHHL rabbits", "type": "in vivo", "conditions": "pravastatin 50 mg/kg/day oral gavage, troglitazone in diet containing 100 mg/kg", "procedure": "(§1) WHHL rabbits [2-3 months of age, the Watanabe heritable hyperlipidemic rabbit described in Biochimica et Biophysica Acta, 960, 294-302 (1988)] were randomly assigned to a control group (7 animals, group A), a group receiving pravastatin alone (5 animals, Group B), a group receiving troglitazone alone (7 animals, Group C), and a group receiving a combination of both active substances (6 animals, Group D). Pravastatin was administered orally by gavage at a dose of 50 mg/kg/day once-daily and troglitazone was given in the diet, containing 100 mg/kg of the substance for 32 weeks. The ingested amount was limited to a daily 120 g per rabbit. Blood was withdrawn from the animal immediately before starting the study and 4, 8, 12, 16, 20, 24, 28 and 32 weeks after starting the study and the total cholesterol levels (mg/dl) were determined for each blood sample. The levels are reported as a percentage (%) of the levels measured immediately before starting the study. The animals were sacrificed and necropsied at week 32 to examine (a) the percent lesion area (%) in the total, thoracic or abdominal portion of the aorta; (b) the stenosis (%) of the coronary arteries and (c) the incidence (%) of xanthoma in the digital joints."}, "[2]": {"system": "WHHL rabbits", "experiment": "Example 1: percent lesion area of the aorta in WHHL rabbits", "type": "in vivo", "conditions": "week 32, mean ± standard error, pravastatin 50 mg/kg/day, troglitazone in diet containing 100 mg/kg, * p < 0.05 vs control", "procedure": "as §1\n(§2) The values actually measured are represented as an average value±standard error in those Tables."}, "[3]": {"system": "WHHL rabbits", "experiment": "Example 1: incidence of xanthoma in the digital joints of WHHL rabbits", "type": "in vivo", "procedure": "as §1, §2"}, "[4]": {"system": "WHHL rabbits", "experiment": "Example 2: percentage area covered by lesions, aortic arch and whole aorta", "type": "in vivo, Male WHHL rabbits", "parameters": "Lesion Area, Aortic Arch, percentage against the control group / Lesion Area, Total Aorta, percentage against the control group: concentration or dose not given beside the values", "conditions": "oral, eight months", "procedure": "(§3) Each test compound was administered for eight months to the rabbits in the form of an aqueous suspension (0.5% carboxymethylcellulose added). In the control group, a 0.5% carboxymethylcellulose solution only was administered.\nThe values actually measured are represented by the mean value plus or minus standard error. The numbers in parentheses represent the percentage lesion area against the control group.\n*p<0.05, **p<0.01; significant difference against the control group under the [Mann-Whitney's U-Test A significant difference (p<0.05) was observed between Groups B and F, between Groups C and E and between Groups D and F at the aortic arch, and between Groups C and E over the total aorta."}, "[5]": {"system": "WHHL rabbits", "experiment": "Example 2: average thickening of intima in aorta", "type": "in vivo, Male WHHL rabbits", "parameters": "Average thickening of intima, Aortic Arch, percentage against the control group / Average thickening of intima, Total Aorta, percentage against the control group: concentration or dose not given beside the values", "procedure": "as §3\nThe values actually measured are represented as the mean value plus or minus a standard error (μm). The numbers in parentheses represent the percentage intimal thickening against the control group. A significant difference was observed between Groups D and F at the aortic arch, and between Groups C and E and between Groups D and F over the total aorta (p<0.05) under the Mann-Whitney's U-Test.\nThe average thickening of the intima is calculated by the cross-sectional area of the aortic tunica intima one section from the arch and two sections from the thoracic and abdominal portions, divided by the length of the tunica media."}, "[6]": {"system": "WHHL rabbits", "experiment": "Example 2: aortic cholesterol content", "type": "in vivo, Male WHHL rabbits", "procedure": "as §3\nThe aortic cholesterol content was measured The tunica media and tunica intima at the aortic arch and at the thoracic and abdominal aorta were peeled away with tweezers and cut into pieces. The pieces were extracted with a 2:1 by volume mixture of chloroform and methanol.\nThe chloroform phase was separated and evaporated to dryness and the residue was dissolved in isopropanol. The total cholesterol and the free cholesterol were measured by a conventional enzymatic method.\nData are expressed by the mean plus or minus standard error (mg/g tissue). The values in parentheses indicate the percentage against the control. A significant difference against the control group was observed by the unpaired student t-test: […]"}, "[7]": {"system": "WHHL rabbits", "experiment": "Example 2: incidence and degree of xanthoma of the four legs", "type": "in vivo, Male WHHL rabbits", "parameters": "Frequency of massive xanthoma: unit not given here", "procedure": "as §3\nThe incidence and the degree of xanthoma of the four legs were measured."}, "[8]": {"system": "Male New Zealand white rabbits", "experiment": "Example 3: regression of established atherosclerotic lesions in the cholesterol-fed rabbit model", "type": "in vivo", "conditions": "for Rate of lesion area, against the control group: figure in parentheses; for Rate of lesion area: thoracic aorta, two months, mean ± standard error, control 29 ± 20", "procedure": "The rabbits were grouped randomly (3-9 animals per group) and the test samples were administered orally for two months, while they were fed with a normolipidaemic diet. […] The results are shown in terms of the percentage of lesion area in the thoracic aorta."}, "[9]": {"conditions": "oral, eight months, control 100 (14/14), *p < 0.05, **p < 0.01 vs control"}}}
{"smiles": "CC[C@H](C)C(=O)O[C@H]1C[C@H](O)C=C2C=C[C@H](C)[C@H](CC[C@@H](O)C[C@@H](O)CC(=O)O)[C@H]21", "note": "[Pravastatin, sodium 1,2,6,7,8,8a-hexahydro-6,8-tetrahydroxy-2-methyl-1-naphthaleneheptanoate]", "values": [{"measurement": "total cholesterol level, % of level before starting the study", "setting": "[1]; week 4", "value": 87, "unit": "%"}, {"measurement": "total cholesterol level, % of level before starting the study", "setting": "[1]; week 8", "value": 87, "unit": "%"}, {"measurement": "total cholesterol level, % of level before starting the study", "setting": "[1]; week 12", "value": 81, "unit": "%"}, {"measurement": "total cholesterol level, % of level before starting the study", "setting": "[1]; week 16", "value": 81, "unit": "%"}, {"measurement": "total cholesterol level, % of level before starting the study", "setting": "[1]; week 20", "value": 75, "unit": "%"}, {"measurement": "total cholesterol level, % of level before starting the study", "setting": "[1]; week 24", "value": 68, "unit": "%"}, {"measurement": "total cholesterol level, % of level before starting the study", "setting": "[1]; week 28", "value": 68, "unit": "%"}, {"measurement": "total cholesterol level, % of level before starting the study", "setting": "[1]; week 32", "value": 60, "unit": "%"}, {"measurement": "Lesion area, Abdominal aorta", "setting": "[2]; control 29.9 ± 4.4", "value": "28.2 ± 8.1", "unit": "%"}, {"measurement": "Lesion Area, Total Aorta", "setting": "[2]; control 65.7 ± 3.9", "value": "53.8 ± 8.2", "unit": "%"}, {"measurement": "Lesion area, Thoracic aorta", "setting": "[2]; control 79.3 ± 5.4", "value": "64.6 ± 10.4", "unit": "%"}, {"measurement": "Incidence of xanthoma, Foreleg", "setting": "[3]; week 32, control 100 (14/14)", "value": 80, "unit": "%"}, {"measurement": "Incidence of xanthoma, Hind leg", "setting": "[3]; week 32, control 100 (14/14)", "value": 80, "unit": "%"}, {"measurement": "Incidence of xanthoma, Total", "setting": "[3]; week 32, control 100 (28/28)", "value": 80, "unit": "%"}, {"measurement": "Lesion Area, Aortic Arch, percentage against the control group", "setting": "[4]; number in parentheses", "value": 72, "unit": "%"}, {"measurement": "Lesion Area, Total Aorta, percentage against the control group", "setting": "[4]; number in parentheses", "value": 70, "unit": "%"}, {"measurement": "Lesion Area, Total Aorta", "setting": "[4]; pravastatin 50, pioglitazone 20, Compound A 10 mg/kg, mean ± standard error, *p<0.05, **p<0.01 vs control", "value": "35 ± 6", "unit": "%"}, {"measurement": "Lesion Area, Aortic Arch", "setting": "[4]; pravastatin 50, pioglitazone 20, Compound A 10 mg/kg, mean ± standard error, control 82 ± 5, *p<0.05, **p<0.01 vs control", "value": "59 ± 11", "unit": "%"}, {"measurement": "suppression of intimal thickening", "setting": "[5]; combinations compared with Groups C and D", "value": "slight suppression of intimal thickening"}, {"measurement": "Average thickening of intima, Aortic Arch, percentage against the control group", "setting": "[5]; number in parentheses", "value": 82, "unit": "%"}, {"measurement": "Average thickening of intima, Total Aorta, percentage against the control group", "setting": "[5]; number in parentheses", "value": 82, "unit": "%"}, {"measurement": "Average thickening of intima in aorta, Total Aorta", "setting": "[5]; oral, eight months, pravastatin 50, pioglitazone 20, Compound A 10 mg/kg, mean ± standard error, control 154 ± 33", "value": "126 ± 22", "unit": "μm"}, {"measurement": "Average thickening of intima in aorta, Aortic Arch", "setting": "[5]; oral, eight months, pravastatin 50, pioglitazone 20, Compound A 10 mg/kg, mean ± standard error, control 237 ± 63", "value": "194 ± 42", "unit": "μm"}, {"measurement": "Cholesterol level of Thoracic and Abdominal Aorta, Esterified", "setting": "[6]; mean ± standard error, control 5.3 ± 1.7", "value": "4.7 ± 0.7", "unit": "mg/g tissue"}, {"measurement": "Cholesterol Content of Aortic Arch, Esterified", "setting": "[6]; mean ± standard error, control 6.5 ± 1.4, *p < 0.05", "value": "6.4 ± 1.1", "unit": "mg/g tissue"}, {"measurement": "Cholesterol level of Thoracic and Abdominal Aorta, Free", "setting": "[6]; mean ± standard error, control 14.8 ± 2.3, *p < 0.05 vs control", "value": "12.5 ± 1.3", "unit": "mg/g tissue"}, {"measurement": "Cholesterol level of Thoracic and Abdominal Aorta, Total", "setting": "[6]; mean ± standard error, control 20.1 ± 2.3, *p < 0.05, **p < 0.02 vs control", "value": "17.2 ± 1.6", "unit": "mg/g tissue"}, {"measurement": "Cholesterol Content of Aortic Arch, Free", "setting": "[6]; mean ± standard error, control 20.6 ± 2.9", "value": "18.6 ± 4.4", "unit": "mg/g tissue"}, {"measurement": "Cholesterol Content of Aortic Arch, Total", "setting": "[6]; mean ± standard error, control 27.1 ± 3.3", "value": "24.9 ± 5.2", "unit": "mg/g tissue"}, {"measurement": "Cholesterol Content of Aortic Arch, Esterified, percentage against the control", "setting": "[6]; number in parentheses", "value": 98, "unit": "%"}, {"measurement": "Cholesterol Content of Aortic Arch, Free, percentage against the control", "setting": "[6]; number in parentheses", "value": 90, "unit": "%"}, {"measurement": "Cholesterol Content of Aortic Arch, Total, percentage against the control", "setting": "[6]; number in parentheses", "value": 92, "unit": "%"}, {"measurement": "Cholesterol level of Thoracic and Abdominal Aorta, Esterified, percentage against the control", "setting": "[6]; number in parentheses", "value": 89, "unit": "%"}, {"measurement": "Cholesterol level of Thoracic and Abdominal Aorta, Free, percentage against the control", "setting": "[6]; number in parentheses", "value": 84, "unit": "%"}, {"measurement": "Cholesterol level of Thoracic and Abdominal Aorta, Total, percentage against the control", "setting": "[6]; number in parentheses", "value": 86, "unit": "%"}, {"measurement": "Frequency of massive xanthoma", "setting": "[7]; control 57, *p < 0.05, **p < 0.01 vs control", "value": 42}, {"measurement": "incidence of xanthoma", "setting": "[7]; forelegs and hindlegs", "value": "slightly less frequent incidence of xanthoma"}, {"measurement": "Distribution of severity of lesion: (-) no lesions", "setting": "[7]; number of legs, control 0", "value": 3}, {"measurement": "Distribution of severity of lesion: (+++) severe lesion", "setting": "[7]; number of legs, control 6", "value": 2}, {"measurement": "Distribution of severity of lesion: (++) moderate lesion", "setting": "[7]; number of legs, control 10", "value": 8}, {"measurement": "Distribution of severity of lesion: (+) slight lesion", "setting": "[7]; number of legs, control 12", "value": 11}, {"measurement": "Incidence of xanthoma, Forelegs", "setting": "[7]; [9]", "value": 100, "unit": "%"}, {"measurement": "Incidence of xanthoma, Hindlegs", "setting": "[7]; [9]", "value": 75, "unit": "%"}, {"measurement": "Incidence of xanthoma, Total", "setting": "[7]; oral, eight months, control 100 (28/28), *p < 0.05, **p < 0.01 vs control", "value": 88, "unit": "%"}, {"measurement": "Rate of lesion area, against the control group", "setting": "[8]; 3 mg/kg", "value": 103}, {"measurement": "Rate of lesion area, against the control group", "setting": "[8]; 5 mg/kg", "value": 79}, {"measurement": "Rate of lesion area", "setting": "[8]; 3 mg/kg oral", "value": "30 ± 12", "unit": "%"}, {"measurement": "Rate of lesion area", "setting": "[8]; 5 mg/kg oral", "value": "23 ± 9", "unit": "%"}]}
